Data on 26 molecules can be found in patent US8399465B2, “Compounds with two fused bicyclic heteroaryl moieties as modulators of leukotriene A4 hydrolase” (Janssen Pharmaceutica NV, priority 2009, dated 2013).

Test [1] relates to LTB4 production in murine blood (LTA4H). In words: LTB4 production by calcium ionophore-stimulated murine blood for LTA4H inhibitor activity. The test is classed as cell-based, CD-1 mice. To be noted: Mus musculus; murine blood diluted 1 in 15, A23187 stimulated; single determination or average; mark after value = form tested: ′ free base, ″ hydrochloride, ^ formate; read-out: IC50. A digest of the protocol: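 Heparinized blood from CD-1 mice was preincubated with compound for 15 min at 37° C, then stimulated with calcium ionophore A23187 (final 7 μg/mL) for 30 min. Centrifugation stopped the reaction, and LTB4 in the supernatant was measured by enzyme immunoassay. Values are single determinations or means of two or more.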

For test [2], the target named is T1, recombinant human LTA4 hydrolase (rhLTA4H) (Homo sapiens, UniProt P09960).
T1 construct: made in house; host or cells: Spodoptera frugiperda (Sf-9) cells, baculovirus (pFastBac1)
T1 sequence (P09960 1-611): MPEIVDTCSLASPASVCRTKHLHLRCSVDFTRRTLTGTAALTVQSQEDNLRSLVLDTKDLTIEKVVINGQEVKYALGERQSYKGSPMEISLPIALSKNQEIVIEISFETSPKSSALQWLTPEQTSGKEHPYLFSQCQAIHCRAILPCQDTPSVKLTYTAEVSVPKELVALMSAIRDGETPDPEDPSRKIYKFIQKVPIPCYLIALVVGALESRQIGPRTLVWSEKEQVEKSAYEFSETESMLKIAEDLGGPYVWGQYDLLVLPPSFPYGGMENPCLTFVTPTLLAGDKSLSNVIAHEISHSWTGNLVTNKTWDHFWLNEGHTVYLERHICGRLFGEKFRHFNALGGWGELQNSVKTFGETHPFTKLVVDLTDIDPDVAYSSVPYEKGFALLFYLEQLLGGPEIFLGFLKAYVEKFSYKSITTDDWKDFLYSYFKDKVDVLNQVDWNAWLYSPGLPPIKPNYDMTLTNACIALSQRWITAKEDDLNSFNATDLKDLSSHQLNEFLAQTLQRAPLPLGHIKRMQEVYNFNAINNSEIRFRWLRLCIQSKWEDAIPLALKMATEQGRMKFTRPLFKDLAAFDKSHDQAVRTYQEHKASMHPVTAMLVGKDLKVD
As to the kind of experiment: Recombinant human LTA4 hydrolase assay for LTA4 hydrolase inhibitor activity. The class given is biochemical. To be noted: rhLTA4H, LTB4 by immunoassay; single determination or average of two or more; mark after value = form tested: ′ free base, ″ hydrochloride, ^ formate; read-out: IC50. The method, boiled down: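 Baculovirus/Sf-9-expressed human LTA4H (10 ng) was preincubated 10 min at rt with compound in assay buffer (10% DMSO in compound dilution), then reacted 30 min at rt with LTA4 free acid made from its methyl ester. LTB4 produced was measured by ELISA after dilution; IC50 from non-linear regression, single or averaged determinations.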

Counter-ions that a name gives are not always drawn.

Regarding `CC(C)CN1CCN(Cc2coc3cc(Oc4nc5ncccc5s4)ccc23)CC1` [Example 308, 2-[3-(4-Isobutyl-piperazin-1-ylmethyl)-benzofuran-6-yloxy]-thiazolo[4,5-b]pyridine formate], the IC50 in test [1] was determined as 71 nM; in test [2], 9 nM.

Consider `O=C(C1CCC1)N1C[C@@H]2C[C@H]1CN2Cc1coc2cc(Oc3nc4ncccc4s3)ccc12` [Example 357, (1S,4S)-Cyclobutyl-{5-[6-(thiazolo[4,5-b]pyridin-2-yloxy)-benzofuran-3-ylmethyl]-2,5-diaza-bicyclo[2.2.1]hept-2-yl}-methanone], for which the IC50 in test [1] stood at 220 nM; in test [2], 7 nM.

`O=C1CCCN1C1CCN(Cc2coc3cc(Oc4nc5ccccc5s4)ccc23)CC1` [Example 179, 1-{1-[6-(Benzothiazol-2-yloxy)-benzofuran-3-ylmethyl]-piperidin-4-yl}-pyrrolidin-2-one]: the half-inhibitory concentration (IC50) in test [1] is 75 nM; in test [2], 11 nM.

`CC(=O)N1C[C@@H]2C[C@H]1CN2Cc1c[nH]c2cc(Oc3nc4ccccc4s3)ccc12` [Example 55, (1S,4S)-1-{5-[6-(Benzothiazol-2-yloxy)-1H-indol-3-ylmethyl]-2,5-diaza-bicyclo[2.2.1]hept-2-yl}-ethanone]: the 50% inhibitory concentration (IC50) came to 129 nM in test [1] and 3 nM in test [2].

As to `NC(=O)C1CCN(C(=O)c2coc3cc(Oc4nc5ncccc5s4)ccc23)CC1` [Example 378, 1-[6-(Thiazolo[4,5-b]pyridin-2-yloxy)-benzofuran-3-carbonyl]-piperidine-4-carboxylic acid amide], the IC50 in test [1] amounted to 110 nM; in test [2], 22 nM.

For the molecule `CC(=O)N1[C@@H]2CC[C@H]1C[C@@H](NCc1coc3cc(Oc4nc5ncccc5s4)ccc13)C2` [Example 332, meso-endo-1-(3-{[6-(Thiazolo[4,5-b]pyridin-2-yloxy)-benzofuran-3-ylmethyl]-amino}-8-aza-bicyclo[3.2.1]oct-8-yl)-ethanone formate], the IC50 is 100 nM in test [1] and 8 nM in test [2].

Turning to `O=C1CCCCN1C1CCN(Cc2coc3cc(Oc4nc5ncccc5s4)ccc23)CC1` [Example 272, 1′-[6-(Thiazolo[4,5-b]pyridin-2-yloxy)-benzofuran-3-ylmethyl]-[1,4′]bipiperidinyl-2-one formate], the IC50 in test [1] amounted to 15 nM; in test [2] it was 5 nM.

`NC(=O)C1CCN(Cc2c[nH]c3cc(Oc4nc5ccccc5s4)cnc23)CC1` [Example 33, 1-[6-(Benzothiazol-2-yloxy)-1H-pyrrolo[3,2-b]pyridin-3-ylmethyl]-piperidine-4-carboxylic acid amide]: the IC50 in test [1] worked out at 1520 nM; in test [2] it was 42 nM.

Take `c1cnc2nc(Oc3ccc4c(CNC5CCCCC5)coc4c3)sc2c1` [Example 299, Cyclohexyl-[6-(thiazolo[4,5-b]pyridin-2-yloxy)-benzofuran-3-ylmethyl]-amine]: the figures for the IC50 in test [1] and in test [2] were 12 nM and 16 nM, respectively.

In the case of `c1cnc2nc(Oc3ccc4c(CN5CCN(c6ccncc6)CC5)coc4c3)sc2c1` [Example 289, 2-[3-(4-Pyridin-4-yl-piperazin-1-ylmethyl)-benzofuran-6-yloxy]-thiazolo[4,5-b]pyridine formate], the values for the IC50 in test [1] and in test [2] were 40 nM and 4 nM, respectively.

As to `CC1CC(C)CN(Cc2coc3cc(Oc4nc5ncccc5s4)ccc23)C1` (stereo not shown) [Example 281, 2-[3-(3,5-Dimethyl-piperidin-1-ylmethyl)-benzofuran-6-yloxy]-thiazolo[4,5-b]pyridine formate], the IC50 worked out at 77 nM in test [1] and 28 nM in test [2].

`CC(=O)N(C1CC1)C1CCN(Cc2coc3cc(Oc4nc5ncccc5s4)ccc23)CC1` [Example 322, N-Cyclopropyl-N-{1-[6-(thiazolo[4,5-b]pyridin-2-yloxy)-benzofuran-3-ylmethyl]-piperidin-4-yl}-acetamide]: the IC50 stood at 30 nM in test [1] and 6 nM in test [2].

With `CCOC(=O)[C@@H]1CCCN(Cc2c[nH]c3cc(Oc4nc5ccccc5s4)ccc23)C1` [Example 144, (3R)-1-[6-(Benzothiazol-2-yloxy)-1H-indol-3-ylmethyl]-piperidine-3-carboxylic acid ethyl ester], the IC50 in test [1] was 2440 nM; in test [2] it was 78 nM.

With `c1ccc(CC2CCN(Cc3coc4cc(Oc5nc6ncccc6s5)ccc34)CC2)cc1` [Example 279, 2-[3-(4-Benzyl-piperidin-1-ylmethyl)-benzofuran-6-yloxy]-thiazolo[4,5-b]pyridine], the IC50 was found to be 130 nM in test [1] and 44 nM in test [2].

With `c1ccc2oc(Oc3ccc4c(CN5CCCCC5)c[nH]c4c3)nc2c1` [Example 15, 2-(3-Piperidin-1-ylmethyl-1H-indol-6-yloxy)-benzooxazole], the half-maximal inhibitory concentration (IC50) worked out at 152 nM in test [1] and 13 nM in test [2].

`c1cnc2nc(Oc3ccc4c(CN5CCC(N6CCOCC6)CC5)coc4c3)sc2c1` [Example 285, 2-[3-(4-Morpholin-4-yl-piperidin-1-ylmethyl)-benzofuran-6-yloxy]-thiazolo[4,5-b]pyridine formate]: the IC50 in test [1] came out at 50 nM; in test [2] it was 16 nM.

Consider `O=C1C[C@@H](O)CN1C1CCN(Cc2c[nH]c3cc(Oc4nc5ccccc5s4)ccc23)CC1` [Example 44, (4R)-1-{1-[6-(Benzothiazol-2-yloxy)-1H-indol-3-ylmethyl]-piperidin-4-yl}-4-hydroxy-pyrrolidin-2-one], for which the values for the IC50 in test [1] and in test [2] were 222 nM and 6 nM, respectively.

For the molecule `OC1CN(Cc2coc3cc(Oc4nc5ncccc5s4)ccc23)C1` [Example 315, 1-[6-(Thiazolo[4,5-b]pyridin-2-yloxy)-benzofuran-3-ylmethyl]-azetidin-3-ol], the IC50 in test [1] was 34 nM; in test [2], 10 nM.

`OCC1CCN(Cc2c[nH]c3cc(Oc4nc5ccccc5s4)ccc23)CC1` [Example 28, {1-[6-(Benzothiazol-2-yloxy)-1H-indol-3-ylmethyl]-piperidin-4-yl}-methanol]: the half-maximal inhibitory concentration (IC50) was determined as 79 nM in test [1] and 15 nM in test [2].

With `CS(=O)(=O)C1CCN(Cc2cc3cc(Oc4nc5ncccc5s4)ccc3o2)CC1` [Example 92, 2-[2-(4-Methanesulfonyl-piperidin-1-ylmethyl)-benzofuran-5-yloxy]-thiazolo[4,5-b]pyridine], the IC50 stood at 400 nM in test [1] and 51 nM in test [2].

As for `CC(C)(C)OC(=O)NC1CCN(Cc2c[nH]c3cc(Oc4nc5ccccc5s4)ccc23)CC1` [Example 145, {1-[6-(Benzothiazol-2-yloxy)-1H-indol-3-ylmethyl]-piperidin-4-yl}-carbamic acid tert-butyl ester], the IC50 in test [1] stood at 171 nM; in test [2] it was 9.7 nM.

As to `c1ccc2sc(Oc3ccc4c(CN5CC6CNCC6C5)c[nH]c4c3)nc2c1` (stereo not shown) [Example 51, 2-[3-(Hexahydro-pyrrolo[3,4-c]pyrrol-2-ylmethyl)-1H-indol-6-yloxy]-benzothiazole 2HCl], the figures for the IC50 in test [1] and in test [2] were 180 nM and 45 nM, respectively.

Consider `O=C1CCCN1C1CCN(Cc2c[nH]c3cc(Oc4nc5ncccc5s4)ccc23)CC1` [Example 20, 1-{1-[6-(Thiazolo[4,5-b]pyridin-2-yloxy)-1H-indol-3-ylmethyl]-piperidin-4-yl}-pyrrolidin-2-one], for which the concentration for half-maximal inhibition (IC50) stood at 81 nM in test [1] and 2 nM in test [2].

On to `Fc1ccc2c(c1)CN(Cc1coc3cc(Oc4nc5ncccc5s4)ccc13)C2` [Example 330, 2-[3-(5-Fluoro-1,3-dihydro-isoindol-2-ylmethyl)-benzofuran-6-yloxy]-thiazolo[4,5-b]pyridine], for which the half-maximal inhibitory concentration (IC50) in test [1] was 1040 nM; in test [2] it was 54 nM.

In the case of `COC(=O)c1ccc(CN2C[C@@H]3C[C@H]2CN3Cc2coc3cc(Oc4nc5ncccc5s4)ccc23)cc1` [Example 360, (1S,4S)-4-{5-[6-(Thiazolo[4,5-b]pyridin-2-yloxy)-benzofuran-3-ylmethyl]-2,5-diaza-bicyclo[2.2.1]hept-2-ylmethyl}-benzoic acid methyl ester], the half-maximal inhibitory concentration (IC50) in test [1] was determined as 350 nM; in test [2], 17 nM.

Turning to `c1ccc(CCNCc2coc3cc(Oc4nc5ncccc5s4)ccc23)cc1` [Example 321, Phenethyl-[6-(thiazolo[4,5-b]pyridin-2-yloxy)-benzofuran-3-ylmethyl]-amine formate], the half-maximal inhibitory concentration (IC50) in test [1] came out at 51 nM; in test [2], 40 nM.

Usually IC50 stands for the concentration that inhibits the measured activity by half.
